Assay results: the RepoRT retention time repository (doi:10.1021/acs.analchem.2c02893)

Experiment: RP, Thermo Scientific Acclaim RSLC 120 C18, 100 × 2.1 mm, 2.2 µm, 30 °C, 0.2 mL/min, estimated dead time 1.1 min; A: 90% water + 10% methanol + 0.01% formic acid + 5 mM ammonium formate, pH 3.61; B: methanol + 0.01% formic acid + 5 mM ammonium formate, pH 3.61; gradient (min/%B) 0/1 1/1 2/39 13/99.9 15/99.9 15.1/1 20.1/1
Conditions: stereoisomer not certain

| Structure (SMILES) | LC retention time |
| --- | --- |
| CCCn1c(C)c(C(=O)c2cccc3ccccc23)c2ccccc21 [JWH-015] | 11.5 min |
| COc1ccc2c3c([nH]c2c1)C(C)=NCC3 [Harmaline] | 5.06 min |
| COC(=O)c1c(Cl)c(Cl)c(C(=O)OC)c(Cl)c1Cl [Chlorthal-dimethyl (DCPA. Dacthal) (NH4)] | 11.6 min |
| c1ccc(C2(N3CCCCC3)CCCCC2)cc1 [Phencyclidine] | 5.74 min |
| O=C(NC(=O)c1c(F)cccc1F)Nc1ccc(CON=C(c2ccc(Cl)cc2)C2CC2)cc1 [Flucycloxuron] | 12.8 min |
| CCOc1nc2cccc(C(=O)O)c2n1Cc1ccc(-c2ccccc2-c2nn[nH]n2)cc1 [Candesartan] | 7.93 min |
| CCCC1OC2CC3C4CCC5=CC(=O)C=CC5(C)C4C(O)CC3(C)C2(C(=O)CO)O1 (centres undefined) [Budesonide] | 10.3 min |
| O=C(Nc1ccc(C(=O)O)c(O)c1)c1ccccc1 [Salicylic acid-4-Benzamido] | 5.47 min |
| CC(C)(C)C(O)C(Cc1ccc(Cl)cc1)n1cncn1 (centres undefined) [Paclobutrazole] | 9.49 min |
| COc1ccc(C2Sc3ccccc3N(CCN(C)C)C(=O)C2O)cc1 (centres undefined) [Diltiazem-Deacetyl] | 6.41 min |
| Clc1ccc(C(OCCN2CCCCC2)c2ccccc2)cc1 (centres undefined) [Cloperastine] | 8.46 min |
| OC(CCN1CCCCC1)(c1ccccc1)C1CC2C=CC1C2 (centres undefined) [Biperidene] | 7.63 min |
| CC(=O)c1ccc(S(=O)(=O)NC(=O)NC2CCCCC2)cc1 [Acetohexamide] | 7.72 min |
| O=C1CN(N=Cc2ccc([N+](=O)[O-])o2)C(=O)N1 [Nitrofurantoin] | 4.14 min |
| COC(=O)C(C)Oc1ccc(Oc2ccc(Cl)cc2Cl)cc1 (centres undefined) [Diclofop-methyl] | 12.3 min |
| CC(C)N(Cc1ccccc1)C(=O)C(C)(C)C [Tebutame] | 10.2 min |
| CCC1C2CC3C4N(C)c5ccccc5C45CC(C2C5O)[N+]3(CC(O)CN(CC)CC)C1O (centres undefined) [Detajmium] | 4.62 min |
| CCCCCCCCCCCC(CC1OC(=O)C1CCCCCC)OC(=O)C(CC(C)C)NC=O (centres undefined) [Orlistat (Na)] | 14.6 min |
| COC(=O)N(OC)c1ccccc1COc1ccn(-c2ccc(Cl)cc2)n1 [Pyraclostrobin] | 11.2 min |
| CC12C=CC3=C4CCC(=O)C=C4CCC3C1CCC2O (centres undefined) [Trenbolone] | 8.89 min |
| CCCc1nn(C)c2c(=O)[nH]c(-c3cc(C(=O)CN4CC(C)NC(C)C4)ccc3OCC)nc12 (centres undefined) [Acetildenafil-Dimethyl] | 7.5 min |

| Structure (SMILES) | LC retention time |
| --- | --- |
| CNC(C)Cc1ccccc1F (centres undefined) [Amphetamine-2-F-Methyl (2-F-methamphetamine)] | 4.33 min |
| O=C(Oc1ccccc1)c1ccccc1C(=O)Oc1ccccc1 [Phthalate-Diphenyl] | 11.2 min |
| Cc1nnc(-c2ccccc2)c(=O)[nH]1 [Metamitron-desamino] | 5.29 min |
| COC(=O)C1C(OC(=O)c2ccccc2)CC2CCC1N2C (centres undefined) [Cocaine] | 4.84 min |
| O=C1CN=C(c2ccccc2)c2c(sc3c2CCCC3)N1 [Bentazepam] | 9.49 min |
| COC(=O)CCc1ccc(OCC(O)CNC(C)C)cc1 (centres undefined) [Esmolol] | 5.18 min |
| CN1C(=O)C(O)N=C(c2ccccc2)c2cc(Cl)ccc21 (centres undefined) [Temazepam] | 7.94 min |
| Cc1ccc(-c2c(Cl)nc(C#N)n2S(=O)(=O)N(C)C)cc1 [Cyazofamid] | 10.3 min |
| CC(=O)CC(c1ccc(Cl)cc1)c1c(O)c2ccccc2oc1=O (centres undefined) [Coumachlor] | 10.2 min |
| CC(CN(C)C)CN1c2ccccc2S(=O)(=O)c2ccccc21 (centres undefined) [Oxomemazine] | 5.34 min |
| CCCC1C(=O)N2C(N(C)C)=Nc3ccc(C)cc3N2C1=O (centres undefined) [Azapropazone] | 6.54 min |
| CC(C)Nc1nc(Cl)nc(NC2CC2)n1 [Cyprazin] | 8.22 min |
| O=C(c1cccc(F)c1)N1CCC(N2CCN(c3ccccc3)CC2)CC1 [CC-2201] | 11.3 min |
| CCCCOCCOCCSC#N [Lethane 384] | 8.12 min |
| COc1ccc2c3c1OC1C(O)C=CC4C(C2)NCCC341 (centres undefined) [Codeine-Nor] | 3.5 min |
| CC1(C)OCC2OC3(C(=O)O)OC(C)(C)OC3C2O1 (centres undefined) [Dikegulac] | 4.76 min |
| COCc1c(C(C)C)nc(C(C)C)c(C=CC(O)CC(O)CC(=O)O)c1-c1ccc(F)cc1 (centres undefined) [Cerivastatin] | 11.6 min |
| CC(C)(C)Nc1nc(N)nc(Cl)n1 [Terbuthylazine-desethyl] | 7.48 min |
| O=[N+]([O-])/N=C1\NCCN1Cc1ccc(Cl)nc1 [Imidacloprid] | 4.76 min |
| COc1cc(C)c(C(=O)c2c(OC)ccc(Br)c2C)c(OC)c1OC [Metrafenone] | 11.4 min |
| CC(=O)OCC(=O)C12N=C(C)OC1CC1C3CCC4=CC(=O)C=CC4(C)C3C(O)CC12C (centres undefined) [Deflazacort] | 9.35 min |

| Structure (SMILES) | LC retention time |
| --- | --- |
| c1ccc2[nH]c(-c3cscn3)nc2c1 [Thiabendazole] | 6.15 min |
| NC(=O)N1c2ccccc2C=Cc2cc(O)ccc21 [2-Hydroxycarbamazepine] | 6.03 min |
| O=C(NC(=O)c1c(F)cccc1F)Nc1cc(Cl)c(F)c(Cl)c1F [Teflubenzuron] | 12.5 min |
| CC(C)(C)C(NC(=O)c1cn(CCCCCF)c2ccccc12)C(N)=O (centres undefined) [ADBICA-5F] | 9.72 min |
| CC(C)CNC(=O)N1CCNC1=O [Isocarbamid (Azolamide)] | 5.74 min |
| CN(C)CCC(c1ccc(Cl)cc1)c1ccccn1 (centres undefined) [Chlorpheniramine] | 6.25 min |
| CC(C)N(CCC(C(N)=O)(c1ccccc1)c1ccccn1)C(C)C (centres undefined) [Disopyramide] | 4.74 min |
| c1ccc2c(c1)[nH]c1ccncc12 [5-Carboline] | 8.7 min |
| O=C1CC2(CCCCC2)CN1 [3,3-pentamethylene-4-butyrolactam] | 6.64 min |
| CCN(CC)C(=O)c1cccnc1 [Nikethamide] | 4.64 min |
| CC(C)C1(C)N=C(c2ncccc2C(=O)O)NC1=O (centres undefined) [Imazapyr] | 4.1 min |
| O=C(Oc1cccc2cccnc12)c1cn(CCCCCF)c2ccccc12 [PB-22-5F] | 10.7 min |
| CNC(=O)Oc1cc(C)c(N(C)C)c(C)c1 [Mexacarbate] | 9.3 min |
| COP(=S)(NC(C)C)Oc1ccccc1C(=O)OC(C)C (centres undefined) [Isofenphos-methyl] | 11.7 min |
| CCN(CC)CCCOC(=O)C1(c2ccccc2)CC2CCC1C2 (centres undefined) [Bornaprine] | 8.54 min |
| O=C(c1cccc2ccccc12)c1cn(CCN2CCOCC2)c2cccc(O)c12 [JWH-200-M-4-OH-Ind] | 10.1 min |
| Nc1ccn(C2OC(CO)C(O)C2O)c(=O)n1 (centres undefined) [Cytarabin] | 1.39 min |
| C[N+]12CCC(CC1)C(OC(=O)C(O)(c1ccccc1)c1ccccc1)C2 (centres undefined) [Clidinium (I+)] | 5.84 min |
| CC(=O)Nc1ccc(OCC(O)CNC(C)C)cc1 (centres undefined) [Practolol] | 3.34 min |
| CCn1cc(C(=O)O)c(=O)c2cc(F)c(N3CCNCC3)cc21 [Norfloxacin] | 4.46 min |
| CC(=O)NCCCS(=O)(=O)O [Acamprosat] | 1.4 min |

| Structure (SMILES) | LC retention time |
| --- | --- |
| CN1CCCCC1Cn1cc(C(=O)c2cccc3ccccc23)c2ccccc21 (centres undefined) [AM-1220] | 8.09 min |
| O=C(Nc1cccc2ccccc12)c1nn(CCCCCF)c2ccccc12 [5-fluoro MN-18] | 11.8 min |
| O=C(c1ccccc1)c1ccc2n1CCC2C(=O)O (centres undefined) [Ketorolac] | 6.94 min |
| Cc1c(C(=O)NN2CCCCC2)nn(-c2ccc(Cl)cc2Cl)c1-c1ccc(Cl)cc1 [Rimonabant] | 12.8 min |
| O=C(c1ccc(F)c2ccccc12)c1cn(CCCCCF)c2ccccc12 [JWH-412-5F. F2201] | 11.6 min |
| Nc1ccc2c(c1)C(c1ccccc1F)=NCC(=O)N2 [Flunitrazepam-7-Amino-desmethyl] | 4.62 min |
| CC(C)(C)C(NC(=O)c1nn(CC2CCCCC2)c2ccccc12)C(N)=O (centres undefined) [MAB-CHMINACA] | 11.8 min |
| CNC(=O)Oc1ccc(N(C)C)c(C)c1 [Aminocarb  (Metacil)] | 5.15 min |
| CCCc1nn(C)c2c(=O)[nH]c(-c3cc(C(=O)CCl)ccc3OCC)nc12 [Chlorodenafil] | 10.2 min |
| CCCC1COC(Cn2cncn2)(c2ccc(Cl)cc2Cl)O1 (centres undefined) [Propiconazole] | 11 min |
| CN(C)CCN1c2ccccc2Sc2ccc(Cl)cc21 [Chlorphenethazine] | 8.49 min |
| CC1(OC(=O)C=Cc2ccccc2)CC(O)C2(O)C=COC(OC3OC(CO)C(O)C(O)C3O)C12 (centres undefined) [Harpagoside] | 8.25 min |
| c1ccc2c(CC3=NCCN3)cccc2c1 [Naphazoline] | 4.84 min |
| O=S1OCC2C(CO1)C1(Cl)C(Cl)=C(Cl)C2(Cl)C1(Cl)Cl (centres undefined) [Endosulfan] | 11.2 min |
| CCOC(=O)C1(c2ccccc2)CCN(CCC(C#N)(c2ccccc2)c2ccccc2)CC1 [Diphenoxylate] | 10.4 min |
| CSC1=NC(C)(c2ccccc2)C(=O)N1Nc1ccccc1 (centres undefined) [Fenamidone] | 9.22 min |
| CNC(=O)Oc1cc(C)cc(C)c1 [XMC (Group of peaks!)] | 7.78 min |
| O=C1CN=C(c2ccccn2)c2cc(Br)ccc2N1 [Bromazepam] | 7.28 min |
| COC(=O)C(C)N(C(=O)Cc1ccccc1)c1c(C)cccc1C (centres undefined) [Benalaxyl] | 10.9 min |
| OC(CCN1CCCC1)(c1ccccc1)C1CCCCC1 (centres undefined) [Procyclidine] | 7.8 min |
| CCNc1nc(NCC)nc(SC)n1 [Simetryn] | 8.14 min |
